Data reported in US10597388B2, “Pyridazinone herbicides” (FMC CORPORATION, priority 2014, dated 2020).
Where two headings read alike, the source gives them in different places.

Assays:
Assay type in all cases: in vivo
[1] = system: crabgrass, large (large crabgrass, Digitaria sanguinalis); assay: Test A greenhouse herbicide test, pre- and postemergence; conditions: 240 h; for pest or weed control at 125 g/ha: 125 g ai/ha; for pest or weed control at 500 g/ha: 500 g ai/ha; for pest or weed control at 500 g/ha / pest or weed control at 1000 g/ha: 0 to 100 scale; for pest or weed control at 1000 g/ha: 1000 g ai/ha
How it was run: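 Seeds in loam–sand blend received a preemergence directed soil spray; plants at 2–10 cm, one- to two-leaf stage, received postemergence sprays. Compounds in a non-phytotoxic solvent with surfactant. After about 10 d in a greenhouse, injury rated visually versus untreated controls on a 0–100 scale (100 = complete control).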

[2] = system: LOLMU, Italian Ryegrass (Lolium multiflorum); assay: Test F mixtures with commercial herbicides, Post- or Pre-emergence
Method: (§1) This test evaluated the effect of mixtures of Compound 1 or Compound 2 with various commercial herbicides on multiple plant species. Seeds of multiple plant species selected were planted into Sandy Loam soil and treated either Post-emergence or Pre-emergence with test chemicals formulated in a non-phytotoxic solvent mixture. Plants were grown in a greenhouse using supplemental lighting to maintain a photoperiod of approximately 16 h; daytime and nighttime temperatures were approximately 24-30 and 19-21° C., respectively. Balanced fertilizer was applied through the watering system. Treated plants and controls were maintained in a greenhouse for 20 d, after which time all species were compared to controls and visually evaluated. Plant response ratings summarized in Tables F1 through F4 and are based on a scale of 0 to 100 where 0 is no effect and 100 is complete control. A dash (-) response means no test result. Application rates (i.e. “Rate”) are expressed in grams of active ingredient per hectare (g a.i./ha). In the following tables KCHSC is kochia (Kochia scoparia), LOLMU in Italian Ryegrass (Lolium multiflorum), AMBEL is common ragweed (Ambrosia elatior), ECHCG is barnyardgrass (Echinochloa crus-galli), SETVI is giant foxtail (Setaria faberii), AMARE is redroot pigweed (Amaranthus retroflexus), ALOMY is blackgrass (Alopecurus myosuroides) and GALAP is galium (Galium aparine). “Obsd.” is observed effect. “Exp.” is expected effect calculated from Colby's Equation.
(§2) Colby's Equation was used to determine the herbicidal effects expected from the mixtures. Colby's Equation (Colby, S. R. “Calculating Synergistic and Antagonistic Responses of Herbicide Combinations,” Weeds, 15(1), pp 20-22 (1967)) calculates the expected additive effect of herbicidal mixtures, and for two active ingredients is of the form: Pa+b=Pa+Pb−(PaPb/100)
(§3) wherein Pa+b is the percentage effect of the mixture expected from additive contribution of the individual components:
(§4) Pa is the observed percentage effect of the first active ingredient at the same use rate as in the mixture, and
(§5) Pb is the observed percentage effect of the second active ingredient at the same use rate as in the mixture.

[3] = system: AMARE, redroot pigweed (Amaranthus retroflexus); assay: as above
Method: as §1, §2, §3, §4, §5

[4] = system: KCHSC, kochia (Kochia scoparia); assay: as above
Method: as §1, §2, §3, §4, §5

[5] = system: AMBEL, common ragweed (Ambrosia elatior); assay: as above
Method: as §1, §2, §3, §4, §5

[6] = system: ALOMY, blackgrass (Alopecurus myosuroides); assay: as above; conditions: Post-emergence, scale 0-100
Method: as §1, §2, §3, §4, §5

[7] = system: GALAP, galium (Galium aparine); assay: as above; conditions: Post-emergence, scale 0-100
Method: as §1, §2, §3, §4, §5

[8] = system: SETVI, giant foxtail (Setaria faberii); assay: as above
Method: as §1, §2, §3, §4, §5

[9] = system: ECHCG, barnyardgrass (Echinochloa crus-galli); assay: as above
Method: as §1, §2, §3, §4, §5

[10] = post-emergence, Postemergence, 0 is no effect, 100 is complete control, read-out: Crabgrass, Large plant response rating
[11] = pre-emergence, Preemergence, 0 no effect, 100 complete control, read-out: Plant response rating, Crabgrass, Large
[12] = Post-emergence, Rate 16 g a.i./ha, scale 0-100
[13] = Post-emergence, Rate 62 g a.i./ha, scale 0-100
[14] = Pre-emergence, Rate 16 g a.i./ha, applied alone, 20 d, scale 0 to 100
[15] = Pre-emergence, Rate 62 g a.i./ha, applied alone, 20 d, scale 0 to 100

Cc1nn(C)c(=O)c(-c2c(C)oc3c(C)cccc23)c1O [Compound 9, 4-(2,7-dimethyl-3-benzofuranyl)-5-hydroxy-2,6-dimethyl-3(2H)-pyridazinone]
pest or weed control at 125 g/ha ([1]; post-emergence, Postemergence, visual rating after approx. 10 d, 0 to 100 scale (0 no effect, 100 complete control), read-out: Plant response rating, Crabgrass, Large): 10%
pest or weed control at 500 g/ha [1, 10]: 50%
pest or weed control at 125 g/ha ([1]; pre-emergence, Preemergence, 0 to 100 scale where 0 is no effect and 100 is complete control, read-out: Crabgrass, Large plant response rating): 20%
pest or weed control at 500 g/ha [1, 11]: 90%

Cc1ccc2sc(C)c(-c3c(O)c(C)nn(C)c3=O)c2c1 [Compound 1, 4-(2,5-dimethylbenzo[b]thien-3-yl)-5-hydroxy-2,6-dimethyl-3(2H)-pyridazinone]
LOLMU Obsd. [2, 12]: 65.0
LOLMU Obsd. [2, 13]: 100.0
LOLMU Obsd. [2, 14]: 65
LOLMU Obsd. [2, 15]: 100
AMARE Obsd. [3, 12]: 30.0
AMARE Obsd. [3, 13]: 100.0
AMARE Obsd. [3, 14]: 20
AMARE Obsd. [3, 15]: 90
KCHSC Obsd. [4, 12]: 60.0
KCHSC Obsd. [4, 13]: 100.0
KCHSC Obsd. [4, 14]: 0
KCHSC Obsd. [4, 15]: 25
AMBEL Obsd. [5, 12]: 95.0
AMBEL Obsd. [5, 13]: 100.0
AMBEL Obsd. [5, 14]: 65
AMBEL Obsd. [5, 15]: 90
ALOMY Obsd. ([6]; Rate 16 g a.i./ha): 0.0
ALOMY Obsd. ([6]; Rate 62 g a.i./ha): 35.0
GALAP Obsd. ([7]; Rate 16 g a.i./ha): 65.0
GALAP Obsd. ([7]; Rate 62 g a.i./ha): 100.0
SETVI Obsd. [8, 12]: 0.0
SETVI Obsd. [8, 13]: 40.0
SETVI Obsd. [8, 14]: 0
SETVI Obsd. [8, 15]: 60
ECHCG Obsd. [9, 12]: 0.0
ECHCG Obsd. [9, 13]: 0.0
ECHCG Obsd. [9, 14]: 0
ECHCG Obsd. [9, 15]: 20
pest or weed control at 1000 g/ha [1, 10]: 90%
pest or weed control at 1000 g/ha [1, 11]: 90%
